ChEMBL document CHEMBL3044731, “Insecticidal Effects of Organotin(IV) Compounds on Plutella Xylostella (L.) Larvae. II. Inhibitory Potencies Against Acetylcholinesterase and Evidence for Synergism in Tests With Bacillus Thuringiensis(BER.) and Malathion” (Met Based Drugs, 1994)
“And” between values parts separate entries of the source, which are not always exact repeats. Equal values may be shown once.

Legend:
[1] = tested on: Plutella xylostella; assay: Insecticidal activity against drug-resistant Plutella xylostella (diamondback moth) fourth-instar larvae exposed to compound through topical application followed by transfer onto fresh Brassica leaves assessed as insect mortality measured 48 hr post compound application; assay type: functional
[2] = biological target: Acetylcholinesterase (Plutella xylostella) (UniProt Q8MZM0); assay: Inhibition of AChE in drug-resistant Plutella xylostella (diamondback moth) fourth-instar larvae homogenates at 0.1 mM using acetylthiocholine iodide substrate by colorimetric method
[3] = biological target: T1, Acetylcholinesterase (Plutella xylostella, UniProt Q8MZM0); assay: Inhibition of AChE in drug-sensitive Plutella xylostella (diamondback moth) fourth-instar larvae homogenates using acetylthiocholine iodide substrate by colorimetric method; conditions: read-out: I50
[4] = biological target: T1, Acetylcholinesterase; assay: Inhibition of AChE in drug-resistant Plutella xylostella (diamondback moth) fourth-instar larvae homogenates using acetylthiocholine iodide substrate by colorimetric method; conditions: read-out: I50

T1 sequence (Q8MZM0 whole entry): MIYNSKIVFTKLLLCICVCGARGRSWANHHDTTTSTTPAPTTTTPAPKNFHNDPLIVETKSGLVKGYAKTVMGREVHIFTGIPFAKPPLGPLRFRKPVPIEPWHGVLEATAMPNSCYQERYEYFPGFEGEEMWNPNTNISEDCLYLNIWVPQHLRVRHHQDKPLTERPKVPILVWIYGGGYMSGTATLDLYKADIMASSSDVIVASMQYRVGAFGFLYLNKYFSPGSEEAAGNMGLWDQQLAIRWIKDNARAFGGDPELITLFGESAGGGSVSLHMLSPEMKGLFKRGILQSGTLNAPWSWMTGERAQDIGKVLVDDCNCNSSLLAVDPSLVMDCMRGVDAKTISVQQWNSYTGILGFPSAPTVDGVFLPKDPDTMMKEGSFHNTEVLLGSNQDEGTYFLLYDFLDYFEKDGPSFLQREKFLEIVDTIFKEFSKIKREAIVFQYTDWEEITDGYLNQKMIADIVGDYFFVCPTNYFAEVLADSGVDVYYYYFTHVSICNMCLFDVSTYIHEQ
Chain of Acetylcholinesterase (Plutella xylostella) (Q8MZM0 entry or part of it): as the sequence (Q8MZM0 whole entry) above

Row | Molecule | LD50 [1] | also measured
1 | 1-(cyclopentyldiphenylstannyl)-1H-1,2,4-triazole | 7.85 ×10⁻³ mol/L | 
2 | 1-(dicyclopentyl(phenyl)stannyl)-1H-1,2,4-triazole | 2.37 ×10⁻³ mol/L | 
3 | 1-(tricyclopentylstannyl)-1H-1,2,4-triazole | 0.27 ×10⁻³ mol/L | 
4 | 4-(2-oxo-2-(triphenylstannyloxy)ethoxy)benzoic acid | 0.69 ×10⁻³ mol/L | 
5 | 5-(triphenylstannylthio)-1,3,4-thiadiazol-2-amine | 2.31 ×10⁻³ mol/L | 
6 | CCOC(=O)CC(SP(=S)(OC)OC)C(=O)OCC (configuration not stated) [MALATHION] | 42.6 ×10⁻³ mol/L | 
7 | CNC(=O)ON=C(C)SC [METHOMYL] | 1.43 ×10⁻³ mol/L | 
8 | (4-chlorophenyl)diphenylstannyl 2-(dimethylcarbamothioylthio)acetate | 2.36 ×10⁻³ mol/L | 
9 | (4-chlorophenyl)diphenylstannyl 2-(phenylcarbamoylthio)acetate |  | inhibition [2]: 15.8%
10 | DICYCLOPENTYL(PHENYL)STANNANOL | 3.7 ×10⁻³ mol/L | 
11 | METHYL TRIPHENYLSTANNYL OXALATE | 4.5 ×10⁻³ mol/L | 
12 | S-triphenylstannyl piperidine-1-carbothioate |  | inhibition [2]: 14.8%
13 | TRIPHENYLSTANNYL 2-(DIMETHYLCARBAMOTHIOYLTHIO)ACETATE |  | IC50 [3]: 26.2 mM
14 | TRIPHENYLSTANNYL 2-(DIMETHYLCARBAMOYLTHIO)ACETATE |  | IC50 [3]: 0.00543 mM; IC50 [4]: 13.1 mM
15 | TRIPHENYLSTANNYL 2-(PHENYLCARBAMOYLTHIO)ACETATE | 1.5 ×10⁻³ mol/L | inhibition [2]: 31.1%
16 | TRIPHENYLSTANNYL 2-([sequence])ACETATE | 3.23 ×10⁻³ mol/L and 1.8 ×10⁻³ mol/L | inhibition [2]: 27.6% and 31.8% and 42.1%
17 | TRIPHENYLSTANNYL 2-([sequence])ACETATE HYDRATE | 24 ×10⁻³ mol/L | 

Row | Molecule | LD50 [1] | also measured
18 | TRIPHENYLSTANNYL 2-([sequence])BENZOATE | 2.06 ×10⁻³ mol/L | 
19 | TRIPHENYLSTANNYL 4-OXOPENTANOATE | 6.95 ×10⁻³ mol/L | 
20 | TRIPHENYLSTANNYL ACETATE | 6.06 ×10⁻³ mol/L | 
21 | [sequence] 2-([sequence])ACETATE | 1.78 ×10⁻³ mol/L | 
22 | tricyclohexylstannyl 2-(piperidine-1-carbonothioylthio)acetate | 0.18 ×10⁻³ mol/L | 
23 | tricyclohexylstannyl 2-(quinolin-8-yloxy)acetate | 0.57 ×10⁻³ mol/L | 
24 | triphenylstannyl 2-(2,4-dichlorophenylcarbamoylthio)acetate |  | inhibition [2]: 13.4%
25 | triphenylstannyl 2-(4-chlorophenoxy)acetate | 2.26 ×10⁻³ mol/L | 
26 | triphenylstannyl 2-(4-chlorophenylcarbamoylthio)acetate | 0.9 ×10⁻³ mol/L | inhibition [2]: 74.6%
27 | triphenylstannyl 2-(4-nitrophenoxy)acetate | 4.38 ×10⁻³ mol/L | 
28 | triphenylstannyl 2-((2-isopropyl-5-methylcyclohexyloxy)carbonothioylthio)acetate | 3.62 ×10⁻³ mol/L | 
29 | triphenylstannyl 2-(morpholine-4-carbonothioylthio)acetate | 1.66 ×10⁻³ mol/L | 
30 | triphenylstannyl 2-(piperidine-1-carbonylthio)acetate |  | inhibition [2]: 24.4%
31 | triphenylstannyl 4-(2-carbamoylhydrazono)pentanoate | 2.22 ×10⁻³ mol/L | 
32 | triphenylstannyl 4-oxo-4-phenylbutanoate | 1.84 ×10⁻³ mol/L | 
33 | triphenylstannyl 6-(piperidine-1-carbonylthio)hexanoate |  | inhibition [2]: 27%
